Measured values published in US10334845B2, “Olfactory ligands” (University College Cardiff Consultants Limited, priority 2015, dated 2019).
Values joined by “and” are separate entries in the source; they are usually repeats but may differ in a detail not shown here. Identical values can stand only once.

Tests used:
[1] = tested on: grain aphids, Sitobion avenae; assay: Behavioural assay, four-arm olfactometer; assay type: in vivo; conditions: for Time spent in control arms (mean of 3) / Time spent in treatment arm: mean (SE), 16 min, 10 replicates; for Insect repellent / attractant activity (in words): summary statement
Description: The responses of individual grain aphids, Sitobion avenae, to test compounds were observed using a Perspex four-arm olfactometer (Pettersson, J.; Ent. Scand. 1, 63-73 (1970); Webster, B., et al. Animal Behav. 79, 451-457 (2010)), which was maintained at 23° C. and lit from above. A filter paper disc was laid in the bottom section of the olfactometer to provide traction for the aphid and the middle and top sections were fitted into place very tightly to give a good seal. The four arms, consisting of the barrels of disposable 10 mL syringes (Plastipak), were fitted tightly into the holes of the middle section, and filtered air was drawn through them and into the body of the olfactometer through a tube inserted into a hole in the centre of the top section and attached to a pump. The measured total flow rate was 200 mL/min and it was assumed that the flow rate through each arm was 50 mL/min. The three control arms each contained a filter paper strip to which had been applied 10 µL hexane which had been allowed to evaporate for 30 s. The treatment arm contained a filter paper strip to which the test compound in 10 μL of hexane (20-200 ng μL^−1) had been applied and left for 30 s for the hexane to evaporate. A single aphid was introduced through the central hole and the suction tube quickly reinserted. The time spent in each arm and in the central zone were recorded, using specialist software (OLFA, Udine, Italy), for the next 16 minutes. The olfactometer was rotated through 90° every 2 min to eliminate any directional bias. Each assay comprised 10 replicates and the mean time spent in treated and control arms were compared using a paired t-test (Genstat).
Data were recorded as mean (±SE) time spent in control (solvent only) or treatment arms and were analysed using Students T-test.

[2] = tested on: grain aphid (Sitobion avenae); conditions: background statement; cited from earlier work

Structure (SMILES) | Time spent in treatment arm ([1]; dose 1.0 μg) | Time spent in control arms (mean of 3) ([1]; dose 2.0 μg) | Time spent in treatment arm ([1]; dose 2.0 μg) | Time spent in control arms (mean of 3) ([1]; dose 1.0 μg) | further results
C=C1/C=C/[C@H](C(C)C)CC/C(C)=C/CC1 [Comparator Compound Ia, (S)-germacrene D] | 1.63 (0.35) min | 2.29 (0.41) min | 0.50 (0.14) min |  | Time spent in control arms (mean of 3) ([1]; dose 0.2 μg): 2.31 (0.26) min; Time spent in treatment arm ([1]; dose 0.2 μg): 1.14 (0.25) min
C=C1C=C[C@H](C(C)CC)CCC(C)=CCC1 (stereo partly drawn) [Comparator Compound Ib, (S)-12-methylgermacrene D] |  |  |  |  | Time spent in control arms (mean of 3) ([1]; dose 0.9 μg): 2.21 (0.42) min; Time spent in treatment arm ([1]; dose 0.9 μg): 1.20 (0.24) min; Time spent in control arms (mean of 3) ([1]; dose 1.2 μg): 2.66 (0.17) min; Time spent in treatment arm ([1]; dose 1.2 μg): 2.13 (0.25) min
C=C1C=C[C@H](C(C)C)CCC(CC)=CCC1 [Comparator Compound Ic, (S)-14-methylgermacrene D] | 3.27 (0.68) min | 2.01 (0.23) min | 1.65 (0.39) min | 2.61 (0.28) min | Time spent in control arms (mean of 3) ([1]; dose 0.2 μg): 2.21 (0.27) min; Time spent in treatment arm ([1]; dose 0.2 μg): 2.41 (0.73) min
C=C1C=C[C@H](C(C)C)CCC(C)=C(F)CC1 [Comparator Compound Ih, (S)-1-fluorogermacrene D] | 2.62 (0.50) min | 2.60 (0.26) min | 2.46 (0.39) min | 2.54 (0.27) min | 
CC=C1C=C[C@H](C(C)C)CCC(C)=CCC1 [Compound If, (S)-15-methylgermacrene D] | 1.92 (0.31) min |  |  | 2.52 (0.23) min | Time spent in control arms (mean of 3) ([1]; dose 0.8 μg): 2.61 (0.26) min; Time spent in treatment arm ([1]; dose 0.8 μg): 1.38 (0.38) min; Insect repellent / attractant activity (in words) [1]: much greater insect repellent activity
CC=C1C=C[C@H](C(C)C)CCC(CC)=CCC1 [Compound Ig, (S)-14,15-dimethylgermacrene D] | 2.77 (0.31) min and 2.97 (0.40) min |  |  | 2.27 (0.11) min and 2.39 (0.20) min | Time spent in control arms (mean of 3) ([1]; dose 0.8 μg): 2.60 (0.22) min; Time spent in treatment arm ([1]; dose 0.8 μg): 3.38 (0.38) min; Time spent in control arms (mean of 3) ([1]; dose 1.2 μg): 1.96 (0.21) min; Time spent in treatment arm ([1]; dose 1.2 μg): 2.92 (0.23) min; Insect repellent / attractant activity (in words) [1]: strong insect attractant properties
C=C1/C=C/[C@H](C(C)C)CC/C(C)=C/CC1 [Germacrene D] |  |  |  |  | Insect repellent activity (in words) [2]: repel insects
C=C1/C=C/[C@@H](C(C)C)CC/C(C)=C/CC1 [III, (R)-germacrene D] | 3.15 (0.53) min | 1.86 (0.29) min | 2.65 (0.52) min | 2.57 (0.19) min | 
CC1CCCC(C)CCC(C(C)C)CC1 (stereo not shown) [IV, germacrane] | 2.04 (0.58) min | 2.39 (0.24) min | 2.38 (0.50) min | 2.45 (0.30) min | 
